Assay results as given in PubChem BioAssay (NCI).
“And” between values parts separate entries of the source, which are not always exact repeats. Identical values can stand only once.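 A five-concentration, 48-hour dose response in 96-well plates underlies each endpoint, interpolated linearly between surrounding concentrations. The concentration for 50% growth inhibition is given as GI50. At the TGI there is no net growth.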

Key:
Experiment in all cases: NCI anticancer screen, dose series, 48 h
HCT-15 colon = system: HCT-15 colon
M14 melanoma = system: M14 melanoma
SK-MEL-2 melanoma = system: SK-MEL-2 melanoma
UACC-257 melanoma = system: UACC-257 melanoma
SK-MEL-5 melanoma = system: SK-MEL-5 melanoma
SF-539 CNS = system: SF-539 CNS
SNB-75 CNS = system: SNB-75 CNS
KM12 colon = system: KM12 colon
CAKI-1 renal = system: CAKI-1 renal
UACC-62 melanoma = system: UACC-62 melanoma

Row | SMILES | TGI (HCT-15 colon) | TGI (M14 melanoma) [µM] | TGI (SK-MEL-2 melanoma) [µM] | TGI (UACC-257 melanoma) | TGI (SK-MEL-5 melanoma) [µM] | TGI (SF-539 CNS) [µM] | TGI (SNB-75 CNS) | TGI (KM12 colon) [µM] | TGI (CAKI-1 renal) [µM] | TGI (UACC-62 melanoma) | GI50 (HCT-15 colon) | GI50 (M14 melanoma) [µM] | GI50 (SK-MEL-2 melanoma) [µM] | GI50 (UACC-257 melanoma) | GI50 (SK-MEL-5 melanoma) [µM] | GI50 (SF-539 CNS) [µM] | GI50 (SNB-75 CNS) | GI50 (KM12 colon) [µM] | GI50 (CAKI-1 renal) [µM] | GI50 (UACC-62 melanoma)
1 | Cc1cc(Cl)ccc1OCC(=O)Oc1c(Cl)c(Cl)c(Cl)c(Cl)c1Cl | 71.7 µM | 71.4 | 67.7 | 45.3 µM | 61.9 | > 100 | 62.6 µM | 52.4 | > 100 | 46.6 µM | – | – | – | – | – | – | – | – | – | –
2 | CCCCCCCCCCCCCCCC[N+](C)(C)C | 1.85 µM and 10.1 µM | 2.86 | 1.17 | 0.942 µM and 6.33 µM | 2.95 | 3.18 | 0.396 µM and 3.72 µM | 2.79 | 10.7 | 1.16 µM and 3.38 µM | 0.383 µM and 1.88 µM | 1.17 | 0.314 | 0.266 µM and 2.46 µM | 1.56 | 1.49 | 0.142 µM and 1.36 µM | 1.36 | 2.05 | 0.258 µM and 1.43 µM
3 | CC(C)NCCCNC1=C(Cl)C(=O)c2ccccc2C1=O | 3.96 µM | 3.49 | 30 | 3.63 µM | 2.88 | 31.8 | 22.4 µM | 22.3 | 20.9 | 4.91 µM | 1.95 µM | 1.86 | 13.5 | 1.91 µM | 1.54 | 16.5 | 10.3 µM | 9.59 | 5.83 | 2.1 µM
4 | CN(C)c1ccc2c(SCC(=O)OCC(=O)[C@@]3(O)CC[C@H]4[C@@H]5CCC6=CC(=O)C=C[C@]6(C)[C@H]5C(=O)C[C@@]43C)c3ccc(N(C)C)cc3nc2c1 | 32.1 µM | > 100 | > 100 | > 77.5 µM | > 100 | > 56.3 | > 89.7 µM | > 100 | 60.8 | 54.6 µM | – | – | – | – | – | – | – | – | – | –
5 | O=C(CN1C(=O)c2ccccc2C1=O)OC1C=CCCC1 (stereo not given) | > 100 µM | > 100 | > 100 | > 100 µM | > 100 | > 100 | > 100 µM | > 100 | > 100 | > 100 µM | – | – | – | – | – | – | – | – | – | –
6 | CCCCCn1ncc(-c2c(O)c(O)cc3c(O)c(-c4c(C)cc5c(-c6cnn(CCCCC)n6)c(O)c(O)cc5c4O)c(C)cc23)n1 | 5.01 µM | 2.89 | 6.81 | 6.12 µM | 2.31 | 4.06 | 3.84 µM | 5.25 | 4.24 | 1.27 µM | 0.0976 µM | 0.182 | 0.147 | 0.792 µM | 0.388 | 0.135 | 0.165 µM | 0.101 | 0.156 | 0.145 µM
7 | CC[O+]=c1cccc2ssnc1-2 | > 100 µM | > 100 | > 100 | > 100 µM | > 100 | > 100 | 72.5 µM | > 100 | > 100 | > 100 µM | – | – | – | – | – | – | – | – | – | –
8 | C=CC1(C)/C(=N\O)C(C)(CC)C(=O)N1O (stereo not given) | > 100 µM | > 100 | > 100 | > 100 µM | > 100 | > 100 | > 100 µM | > 100 | > 100 | > 100 µM | – | – | – | – | – | – | – | – | – | –
9 | C=C(C)[C@@H]1CC[C@]2(c3ncc(C)o3)CC[C@]3(C)[C@H](CC[C@@H]4[C@@](C)(CCC#N)[C@H](C(=C)C)CC[C@]43C)[C@@H]12 | 17.1 µM | 24.2 | 33.7 | 24.4 µM | 13.7 | 21.7 | 16.6 µM | 15.1 | 16.1 | 6.96 µM | 3.94 µM | 7.8 | 16.4 | 9.02 µM | 3.65 | 9.05 | 2.44 µM | 3.89 | 2.8 | 2.38 µM
10 | CN1CCN(c2ccc(NC3=C(Cl)C(=O)c4ncccc4C3=O)cc2C(F)(F)F)CC1 | 3 µM | 3.67 | 8.79 | 3.09 µM | 13.3 | 3.53 | 19.8 µM | 30.1 | 3.13 | 3.81 µM | 1.39 µM | 1.78 | 3.32 | 1.62 µM | 3.52 | 1.74 | 5.44 µM | 14.4 | 1.72 | 1.88 µM
11 | CCN(CCc1ccc(F)cc1)c1ccc(CO)c(Cl)c1 | 24.6 µM | 28.7 | 21.1 | 4.87 µM | 25.9 | 29.3 | 25.9 µM | 30 | 17.2 | 8.41 µM | 9.84 µM | 13.8 | 7.29 | 1.42 µM | 13 | 15.7 | 9.26 µM | 15 | 4.23 | 1.32 µM
12 | O=C(O)c1cc2c3c(c1)[C@H]1C=CC[C@H]1CN3CC1CC=CC21 (stereo not given in full) | > 100 µM | > 100 | > 100 | > 100 µM | > 100 | > 100 | > 100 µM | > 100 | > 100 | > 100 µM | – | – | – | – | – | – | – | – | – | –
13 | CCCCn1c(=O)c(/C=C/C(=O)/C=C/c2ccc(O)c(OC)c2)cc2ccc(Cl)cc21 | 5.94 µM | 4.17 | 6.32 | 3.31 µM | 3.09 | 3.18 | 6.22 µM | 3.66 | 3.91 | 3.24 µM | 1.9 µM | 1.86 | 2.67 | 1.41 µM | 1.69 | 1.62 | 2.26 µM | 1.89 | 2.16 | 1.48 µM
14 | Cc1occc1C(=S)Nc1ccc(Cl)c(C(=O)OCC2CC2)c1 | > 100 µM | > 100 | > 100 | > 100 µM | > 100 | > 100 | 70.1 µM | 96.3 | > 100 | > 100 µM | – | – | – | – | – | – | – | – | – | –
15 | O=C(/C=C/c1ccccc1)c1ccc(O)c(CN2CCN(c3cc4c(cc3F)c(=O)c(C(=O)O)cn4C3CC3)CC2)c1 | > 100 µM | > 100 | > 100 | > 100 µM | 7.48 | > 100 | 9.78 µM | 21 | > 100 | > 100 µM | 2.64 µM | 1 | 3.3 | 1.91 µM | 1.89 | 0.465 | 0.378 µM | 1.69 | 2.42 | 1.67 µM
